In patent publication US8980914B2, “Therapeutic agent for chronic obstructive pulmonary disease and method for treatment for chronic obstructive pulmonary disease with the same” (Mariposa Health Limited, priority 2003, dated 2015):

Columns and labels:
[1] = system: airway hyper-responsiveness induced by ozone; test: Airway hyper-responsiveness model induced by inhalation of ozone in guinea pigs (lung resistance after methacholine); type: in vivo; conditions: test substance 30 mg/kg one hour before ozone inhalation, RLung after methacholine inhalation 5 hours after end of ozone exposure
Description: This test was performed so as to evaluate the pharmacological effect of the 7-aminoquinolinone derivatives of the present invention in an airway hyper-responsiveness model induced by inhalation of ozone in guinea pigs. The test procedure will now be described.
Guinea pigs were fasted for 18 hours or more. The animals were administered the test substance (30 mg/kg) and theophylline (100 mg/kg) one hour before ozone inhalation. For the non-stimulation group and the vehicle control group, vehicle (5 mL/kg) was administered similarly.
The animals were put into an acryl-made chamber (29×19×25 cm), subjected to induction of ozone generated by an ozonizer (EUV3-XU; EBARA JITSUGYO CO, LTD.) and exposed for 2 hours. The ozone concentration in the chamber was approximately 3 ppm. It was confirmed every 30 minutes that this concentration was maintained during exposure by an ozone monitor (EG-5000; EBARA JITSUGYO CO, LTD.) (measured value: 2.53 to 3.40 ppm). For the non-stimulation group, the animals were exposed to a mixed gas (oxygen: 95%, carbonic acid gas: 5%) similarly. The ozone concentration at that time was also confirmed similarly (acceptable concentration: 0.01 ppm or less, measured value: 0.00 to 0.01 ppm).
The measurement of airway hyper-responsiveness was performed 5 hours after the end of ozone exposure. The measurement of lung resistance (RLung) was performed according to the method of R. E. Giles et al. in the same manner as in Example 2. That is, the animals were anesthetized with Nembutal (Trade name: 50 mg/kg, i.p., sodium pentobarbital) and subjected to cannulation into esophagus and trachea. The esophagus and trachea cannulas were connected to a respirator (ventilation volume: 6 mL/kg, ventilation frequency: 60 times/min, SN-480-7) and the RLung after inhalation of methacholine (100 μg/mL, for 1.5 minutes) was measured by the respiratory function analyzer (PULMOS-II; M.I.P.S) through a flow sensor (connected to Validyle DF45F (for flow rate) and DP45P (for pressure)). The inhalation of methacholine was performed with an ultrasonic nebuliser (NE-U17; Omron Matsuzaka) connected to the respirator under artificial respiration.
Used RLung represents 10 breaths having a stable value in a range from 1 to 30 breaths after initiation of each measurement for both before inhalation and during methacholine inhalation. The average of the RLung was calculated. The extreme values in RLung that occurred when animal moved during the measurement were excluded from the calculations.
The percentage of increase of RLung was calculated by the following equation. Increase in lung resistance (%)=([RLung after inhalation of methacholine]−[RLung before administration])/[RLung before administration]×100

[2] = system: airway hyper-responsiveness induced by peroxynitrite; test: Airway hyper-responsiveness model induced by exposure of peroxynitrite in guinea pigs (lung resistance after histamine); type: in vivo; conditions: 30 mg/kg orally one hour before peroxynitrite, histamine 32 μg/kg i.v. on 5-day, control group 759, non-stimulation group 382
Description: This test was performed so as to investigate the pharmacological effect of the 7-aminoquinolinone derivative of the present invention on an airway hyper-responsiveness model induced by exposure of peroxynitrite in guinea pigs. The test procedure will now be described.
Guinea pigs were fasted for 18 hours or more. The animals were administrated the test substance (30 mg/kg) orally one hour before exposure of peroxynitrite and the neck was dissected under ether anesthesia, and then the trachea was exposed. 0.1 mL of 1 mmol/L peroxynitrite was administered intratracheally into pulmonary side by pushing with air and, after the administration, the incision was sutured and disinfected.
The measurement of airway hyper-responsiveness was performed on 5-day, taking the day of model preparation 0-day. Guinea pigs were fasted for 18 hours or more. The measurement of lung resistance; (RLung) was performed according to the method of R. E. Giles et al. (R. E. Giles, M. P. Finkel and J. Mazurowski: Use of an Analog On-Line Computer for the Evaluation of Pulmonary Resistance and Dynamic Compliance in the Anesthetized Dog. Arch. Int. Pharmacodyn. 194, 213-222 (1971)). That is, the animals were anesthetized with Nembutal (Trade name: 40 mg/kg, i.v., sodium pentobarbital) and subjected to cannulation into esophagus, trachea and jugular veins (for administration of histamine). The esophagus and trachea cannulas were connected to an artificial respirator (ventilation volume: 6 mL/kg, ventilation frequency: 60 times/min, SN-480-7) and the Rlung was measured after intravenous administration (dose of 0.1 mL/kg) of physiological saline solution and histamine (32 μg/kg) using a total plethysmograph system via flow sensor, connected to Validyne DF45F (for flow rate) and DP45P (for pressure). RLung before administration was determined by averaging values of any 3 out of 20 breaths, RLung after administration of physiological saline solution was determined by averaging values of any 3 out of 5 breaths, and RLung after administration of histamine was determined by averaging values of the following 3 breaths; 1) showing the maximum lung resistance, 2) taken just before and 3) taken just after the one with the maximum lung resistance, out less than 20 breaths. (The extreme values in RLung that occurred when animal moved during the measurement were excluded from the calculations.)
The percentage of increase in lung resistance was calculated by the following equation. Increase in lung resistance (%)=([RLung after administration of histamine]−[RLung before administration])/[RLung before administration]×100

[3] = Peroxynitrite scavenging activity (oxidation of dihydrorhodamine 123); type: biochemical; conditions: oxidation of dihydrorhodamine 123 by peroxynitrite, phosphate buffer pH 7.4; read-out: 50% Inhibitory concentration on oxidation (IC50)
Description: This test was performed by estimating the antioxidative effect of the test substance using peroxynitrite quantitative method as a test system with dihydrorhodamine 123 so as to confirm the ability of the 7-aminoquinolinone derivatives of the present invention to scavenge peroxynitrite. This is a method described in NITRIC OXIDE: Biology and Chemistry Vol. 1, 145-157, 1997.
The test substance was weighted in an amount of approximately 10 mg, dissolved in a 10% Tween 80 solution and adjusted to 5×10^−3 mol/L. Then, the solution was diluted with 0.1 mol/L phosphate buffer (pH=7.4) to 5×10^−4 mol/L. The diluent was further diluted stepwise with a phosphate buffer containing 1% Tween 80 to obtain substance solution. The preparation was conducted before use. The final concentration of the test substance was adjusted to 3×10^−6, 1×10^−6, 3×10^−7, 1×10^−7, and 3×10^−8 mol/L, respectively.
To 20 μL of peroxynitrite solution (manufactured by DOJINDO LABORATORIES), 1980 μL of 0.1 mol/L sodium hydroxide was added and the mixture was diluted 100 times. The absorbance of the maximum absorption wavelength near 300 nm was measured using a UV-visible spectrophotometer and the concentration was calculated according to the following equation. Concentration(mmol/L)=(absorbance/1670)×100×1000
Based on the concentration calculated in the above section, dilution with a 0.1 mol/L sodium hydroxide solution was conducted and adjusted to 10 mmol/L. 990 μL of a 0.1 mol/L sodium hydroxide solution was taken into a 1.5 mL-Eppen tube. To the Eppen tube, 10 μL of a solution adjusted to 10 mmol/L was added to prepare a 100 μmol/L solution.
Dihydrorhodamine 123 was dissolved into 1.155 mL of dimethylsulfoxide, and adjusted to the concentration of 25 mmol/L. This solution was dispensed into 20 μL aliquots and then the aliquots were stored in a biomedical freezer (about −20° C.) and used as a stock solution.
To 490 μL of 0.02% Tween 80 containing 0.1 mol/L phosphate buffer, 10 μL of 25 mmol/L of a thawed dihydrorhodamine 123 stock solution was added to make 500 μmol/L. The prepared solution was diluted with 0.1 mol/L phosphate buffer (pH=7.4) 1000 times to prepare 500 nmol/L of a dihydrorhodamine 123 solution.
(1) To a 3.5 mL brown vial containing a stirring bar, 1470 μL of a 500 nmol/L dihydrorhodamine 123 solution and then 15 μL of the test substance solution was added. For the blank and control groups, 15 μL of 0.1 mol/L phosphate buffer containing 1% Tween 80, as a solvent for the test substance solution, was added. After the addition, the mixture was stirred with a stirrer for 30 minutes.
15 μL of a 100 μmol/L peroxynitrite solution was added while stirring. For the blank group, 15 μL of a 0.1 mol/L sodium hydroxide solution was added. After stirring for 15 minutes, fluorescence intensity was measured.
Fluorescence intensity of the reaction solution was measured using a spectrophotofluorometer under the following measuring conditions: excitation wavelength, 500 nm; emission wavelength, 536 nm; measuring times, one; response, 1 sec; photomultiplier tube voltage, Low; band width at excitation side, 10 nm; bandwidth at emission side, 10 nm.
The oxidation rate of dihydrorhodamine 123 when adding the test substance was calculated, taking the oxidation rate of dihydrorhodamine 123 for control as 100, according to the following equation: Oxidation rate (%) of dihydrorhodamine 123=(measured value for each group−measured value for blank)/(measured for control−measured value for blank)×100 Calculation of Oxidation Inhibition Concentration (IC50)
50% oxidation concentration, that is 50% oxidation inhibition concentration (IC50) was calculated by giving a straight line from two points surrounding 50% oxidation rate.

| SMILES | IC50 [3] | Increase in lung resistance (%) [1] | Increase in lung resistance (%) [2] |
| --- | --- | --- | --- |
| CCCCCCOc1c(O)c2ccc(NC=O)cc2n(CCCC)c1=O [Compound 459] | 940 nM | 26% | 427% |
| COc1c(O)c2ccc(NC(=O)c3ccccc3)cc2n(C)c1=O [Compound 514] | 910 nM | 31% | 434% |
| CCCCCCCCOc1c(O)c2ccc(NC(=O)c3ccccc3)cc2n(C)c1=O [Compound 519] | 830 nM | 26% | 440% |
| COc1cc(C=CC(=O)Nc2ccc3c(O)c(OCC=C(C)CCC=C(C)C)c(=O)n(C)c3c2)cc(OC)c1O [Compound 553] | 980 nM | 28% | 417% |

Continued, in another order:

| IC50 [3] | SMILES | Increase in lung resistance (%) [1] | Increase in lung resistance (%) [2] |
| --- | --- | --- | --- |
| 790 nM | COc1cc(C=CC(=O)Nc2ccc3c(O)c(OC)c(=O)n(C)c3c2)cc(OC)c1O [Compound 546] | 27% | 422% |
| 800 nM | CCCCCCOc1c(O)c2ccc(NC(=O)C=Cc3cc(OC)c(O)c(OC)c3)cc2n(C)c1=O [Compound 549] | 28% | 423% |
| 710 nM | CCCCCCCCOc1c(O)c2ccc(NC(=O)C=Cc3cc(OC)c(O)c(OC)c3)cc2n(C)c1=O [Compound 551] | 22% | 416% |
| 890 nM | CCCCCCOc1c(O)c(=O)n(C)c2cc(NC(=O)C=Cc3cc(OC)c(O)c(OC)c3)ccc12 [Compound 556] | 25% | 426% |
| 760 nM | CCCCCCOc1c(O)c2ccc(NC(=O)C=Cc3ccc(O)c(OC)c3)cc2n(C)c1=O [Compound 581] | 30% | 430% |
